The values below come from US5455286A, “Bioactive composition” (priority 1994, dated 1995).

The conditions of data set [1]: dog, in vivo, 480 min.
Method: (§1) The experiments were carried out on male beagle dogs, each roughly 10 kg in weight. […] The dogs were restrained in a dog sling. Approximately 10 mg of propranolol was administered nasally to each dog by spraying an appropriate amount of the present formulations containing propranolol into both nostrils of the dog using a metered dose dispenser (typically 2 sprays over a two minute period). The amount of drug administered nasally was obtained by weighing the dispenser before and after spraying.
(§2) Blood samples were withdrawn at desired intervals from each dog through a cannula inserted in the cephalic vein. The blood samples were centrifuged immediately after the collection and the plasma samples were stored frozen until assayed. The assay for propranolol consisted of HPLC separation and UV/fluorescence detection.
(§3) The area under the curve (AUC) has been normalized to the amount of propranolol administered.
Another data set can be described thus: in vivo. To be noted: dog.

Method for in vivo: as §1, §2, §3

Compound `CC(C)NCC(O)COc1cccc2ccccc12` (centres unmarked) [Propranolol, propranolol] showed an AUC/IV-AUC in data set [1] of 1.00. Also, in “in vivo” (iv), the Tmax is 0.05 h. Further, in “in vivo” (po), the Cmax was found to be 3 ng/mL, the Tmax was 2 h and the bioavailability at 8 h came out at 4%.
